The subject of assay [1] is CDC1551(rv2390c′::GFP) reporter Mtb strain, response to high [Cl−]. Kind of assay: microbe, parasite or virus in culture. It counts as cell-based, Mycobacterium tuberculosis. To be noted: Mycobacterium tuberculosis, 144 h; for activity at 20 µM: read-out: rv2390c'::GFP validation assay NPA% at 20 µM compound.
The test system of assay [2] is CDC1551(rv1405c′::GFP) reporter Mtb strain. Kind of assay: microbe, parasite or virus in culture. It counts as cell-based, Mycobacterium tuberculosis. To be noted: Mycobacterium tuberculosis; for activity at 10 µM: read-out: rv1405c'::GFP secondary assay NPA% at 10 µM compound; for activity at 20 µM: read-out: rv1405c'::GFP secondary assay NPA% at 20 µM compound.
[3] abbreviates: pH 6.4, […], DMSO positive control = 100%, read-out: Primary screen rv2390c'::GFP NPA%.
Where [4] appears, read: 10 µM, pH 6.4, 250 mM NaCl, 6 days, read-out: rv2390c'::GFP validation assay NPA% at 10 µM compound.

Where two headings read alike, the source gives them in different places.

Consider 19 compounds from article PMC8351955, “Targeting Mycobacterium tuberculosis response to environmental cues for the development of effective antitubercular drugs” (PLoS Biology, 2021).

On to `COc1ccc2c(CC(=O)Nc3nc(CN4CCCCC4)cs3)coc2c1` [RU-0204291, COC1=CC2=C(C=C1)C(CC(=O)NC1=NC(CN3CCCCC3)=CS1)=CO2], for which the activity at 10 µM amounted to 167% in assay [1] (setting [3]), 99.2 ± 12.7% in assay [1] (setting [4]) and 104 ± 2.6% in assay [2]. Also, the activity at 20 µM turned out to be 142 ± 13% in assay [1] (pH 6.4, 250 mM NaCl, 6 days) and 135 ± 13.2% in assay [2].

Turning to `COC(=O)c1sc(NS(=O)(=O)c2ccc(S(C)(=O)=O)c(F)c2)nc1C` [RU-0208648, COC(=O)C1=C(C)N=C(NS(=O)(=O)C2=CC(F)=C(C=C2)S(C)(=O)=O)S1], the activity at 10 µM in assay [1] (setting [3]) worked out at 36.7%; in assay [1] (setting [4]), 55.2 ± 3.9%; in assay [2] it was 45.2 ± 2.1%. For the same compound, the activity at 20 µM was found to be 38.5 ± 6.3% in assay [1] (pH 6.4, 250 mM NaCl, 6 days) and 13.7 ± 2.5% in assay [2].

Turning to `CSc1nc2nc3c(cc2c(=O)[nH]1)C(O)Oc1ccc(C)cc1-3` (stereo not shown) [RU-0183239, CSC1=NC2=C(C=C3C(O)OC4=C(C=C(C)C=C4)C3=N2)C(=O)N1], the activity at 10 µM in assay [1] (setting [3]) amounted to 49.5%; in assay [1] (setting [4]), 49.2 ± 4.2%; in assay [2], 53.9 ± 4.3%. Besides, the activity at 20 µM in assay [1] (pH 6.4, 250 mM NaCl, 6 days) stood at 33.7 ± 1.8%; in assay [2], 12.9 ± 5.2%.

Consider `Cc1ccc(NC(=O)[C@@H]2CCCN2S(=O)(=O)c2ccccc2F)cc1` [RU-0270461, CC1=CC=C(NC(=O)[C@@H]2CCCN2S(=O)(=O)C2=C(F)C=CC=C2)C=C1], for which the activity at 10 µM amounted to 151% in assay [1] (setting [3]), 116 ± 6.6% in assay [1] (setting [4]) and 98.1 ± 2.7% in assay [2]. The activity at 20 µM in assay [1] (pH 6.4, 250 mM NaCl, 6 days) came to 168 ± 4%; in assay [2], 159 ± 7.6%.

For the compound `O=S(=O)(Nc1c(F)cccc1F)c1c(Cl)cccc1Cl` [RU-0271471, FC1=CC=CC(F)=C1NS(=O)(=O)C1=C(Cl)C=CC=C1Cl], the activity at 10 µM in assay [1] (setting [3]) was determined as 26%; in assay [1] (setting [4]), 46.1 ± 5.6%; in assay [2] it was 32.2 ± 2%. For the same compound, the activity at 20 µM in assay [1] (pH 6.4, 250 mM NaCl, 6 days) amounted to 25.7 ± 1.9%; in assay [2], 13.8 ± 3.7%.

Consider `O=c1[nH]c(SCC2OCCc3ccccc32)nc2[nH]ncc12` (stereo not shown) [RU-0271878, O=C1NC(SCC2OCCC3=C2C=CC=C3)=NC2=C1C=NN2], for which the activity at 10 µM in assay [1] (setting [3]) came out at 43.3%; in assay [1] (setting [4]) it was 63.4 ± 5.5%; in assay [2], 57.7 ± 7%. The activity at 20 µM in assay [1] (pH 6.4, 250 mM NaCl, 6 days) was 24.3 ± 3.8%; in assay [2], 24.9 ± 3.6%.

For the compound `CC(C)c1cc(C(=O)NC2CCN(c3cccc(F)c3)CC2)n[nH]1` [RU-0278450, CC(C)C1=CC(=NN1)C(=O)NC1CCN(CC1)C1=CC(F)=CC=C1], the activity at 10 µM in assay [1] (setting [3]) turned out to be 175%; in assay [1] (setting [4]) it was 118 ± 5.7%; in assay [2], 92.3 ± 5.3%. The activity at 20 µM turned out to be 231 ± 1% in assay [1] (pH 6.4, 250 mM NaCl, 6 days) and 146 ± 5.1% in assay [2].

As to `COC(=O)Oc1sc2nc3ccccc3nc2c1N` [RU-0193917, COC(=O)OC1=C(N)C2=C(S1)N=C1C=CC=CC1=N2], the activity at 10 µM is 158% in assay [1] (setting [3]), 166 ± 15.7% in assay [1] (setting [4]) and 111 ± 4% in assay [2]. Also, the activity at 20 µM was determined as 184 ± 27% in assay [1] (pH 6.4, 250 mM NaCl, 6 days) and 179 ± 15% in assay [2].

Turning to `O=C(O)c1cc(-c2ccc(N3CCOCC3)cc2)nn1-c1ccc(F)cc1` [RU-0206470, OC(=O)C1=CC(=NN1C1=CC=C(F)C=C1)C1=CC=C(C=C1)N1CCOCC1], the activity at 10 µM was 157% in assay [1] (setting [3]), 111 ± 10.3% in assay [1] (setting [4]) and 104 ± 4.5% in assay [2]. Further, the activity at 20 µM in assay [1] (pH 6.4, 250 mM NaCl, 6 days) came out at 165 ± 15.9%; in assay [2] it was 158 ± 23.6%.

In the case of `O=C(O)c1cc2ccccc2cc1NS(=O)(=O)N1CCCCC1` [RU-0210069, OC(=O)C1=C(NS(=O)(=O)N2CCCCC2)C=C2C=CC=CC2=C1], the activity at 10 µM in assay [1] (setting [3]) amounted to 44.6%; in assay [1] (setting [4]) it was 66.4 ± 3.4%; in assay [2] it was 52.8 ± 1.5%. The activity at 20 µM in assay [1] (pH 6.4, 250 mM NaCl, 6 days) worked out at 58.6 ± 5.9%; in assay [2], 31.2 ± 2.6%.

As to `CCCn1ncc(C(=O)NC(C)C(=O)Nc2ccc(F)cc2C)c1C` (stereo not shown) [RU-0232065, CCCN1N=CC(C(=O)NC(C)C(=O)NC2=CC=C(F)C=C2C)=C1C], the activity at 10 µM in assay [1] (setting [3]) was determined as 154%; in assay [1] (setting [4]), 119 ± 6.6%; in assay [2] it was 91.3 ± 9.4%. The activity at 20 µM in assay [1] (pH 6.4, 250 mM NaCl, 6 days) worked out at 147 ± 14.2%; in assay [2], 98.3 ± 13%.

Regarding `Cc1sc(NS(=O)(=O)c2ccc(F)c(F)c2)c(C(N)=O)c1C` [RU-0205217, CC1=C(C)C(C(N)=O)=C(NS(=O)(=O)C2=CC(F)=C(F)C=C2)S1], the figures for the activity at 10 µM in assay [1] (setting [3]), in assay [1] (setting [4]) and in assay [2] were 163%, 128 ± 4.7% and 305 ± 31.1%, respectively. Also, the activity at 20 µM in assay [1] (pH 6.4, 250 mM NaCl, 6 days) stood at 217 ± 16.5%; in assay [2] it was 741 ± 74%.

On to `Cc1ccc(C(C)NC(=O)Nc2ccc(C#N)c(Cl)c2)o1` (stereo not shown) [RU-0272807, CC(NC(=O)NC1=CC(Cl)=C(C=C1)C#N)C1=CC=C(C)O1], for which the results for the activity at 10 µM in assay [1] (setting [3]), in assay [1] (setting [4]) and in assay [2] were 160%, 113 ± 12.8% and 90.5 ± 6.1%, respectively. For the same compound, the activity at 20 µM in assay [1] (pH 6.4, 250 mM NaCl, 6 days) stood at 133 ± 5.6%; in assay [2] it was 128 ± 12%.

Regarding `COc1ccc(F)c(-c2cc3c(cc2C(N)=O)OCO3)c1` [RU-0251853, COC1=CC(=C(F)C=C1)C1=CC2=C(OCO2)C=C1C(N)=O], the activity at 10 µM in assay [1] (setting [3]) worked out at 182%; in assay [1] (setting [4]) it was 147 ± 6.1%; in assay [2], 147 ± 32%. In addition, the activity at 20 µM amounted to 276 ± 8% in assay [1] (pH 6.4, 250 mM NaCl, 6 days) and 296 ± 65.4% in assay [2].

For the compound `CCNC(=O)c1ccccc1OCc1nc(-c2ccc3c(c2)OCO3)no1` [RU-0257147, CCNC(=O)C1=C(OCC2=NC(=NO2)C2=CC3=C(OCO3)C=C2)C=CC=C1], the activity at 10 µM turned out to be 154% in assay [1] (setting [3]), 92.6 ± 5.8% in assay [1] (setting [4]) and 82 ± 5.5% in assay [2]. Moreover, the activity at 20 µM in assay [1] (pH 6.4, 250 mM NaCl, 6 days) amounted to 127 ± 7.2%.

As to `CCCC(C)c1nnc(NC(=O)c2nnc3nc(C)cc(C)n23)s1` (stereo not shown) [RU-0225311, CCCC(C)C1=NN=C(NC(=O)C2=NN=C3N=C(C)C=C(C)N23)S1], the activity at 10 µM came out at 155% in assay [1] (setting [3]), 116 ± 6.7% in assay [1] (setting [4]) and 110 ± 9.7% in assay [2]. Also, the activity at 20 µM in assay [1] (pH 6.4, 250 mM NaCl, 6 days) came to 195 ± 6.5%; in assay [2], 137 ± 16.9%.

With `Cc1ccc(-n2nc(C)c3c(=O)[nH]c(C(F)(F)F)nc32)cc1` [RU-0271306, CC1=NN(C2=C1C(=O)NC(=N2)C(F)(F)F)C1=CC=C(C)C=C1], the activity at 10 µM in assay [1] (setting [3]) worked out at 40.8%; in assay [1] (setting [4]), 30.6 ± 2.4%; in assay [2] it was 37.3 ± 1.3%. For the same compound, the activity at 20 µM worked out at 36.6 ± 3.4% in assay [1] (pH 6.4, 250 mM NaCl, 6 days) and 11.5 ± 4.6% in assay [2].

Take `CC(C)(C)n1cc(C#N)c(NS(=O)(=O)c2cccc(F)c2)n1` [RU-0277089, CC(C)(C)N1C=C(C#N)C(NS(=O)(=O)C2=CC(F)=CC=C2)=N1]: the activity at 10 µM in assay [1] (setting [3]) amounted to 45.4%; in assay [1] (setting [4]), 51.2 ± 5.5%; in assay [2], 43.2 ± 4.1%. Moreover, the activity at 20 µM amounted to 28.2 ± 0.7% in assay [1] (pH 6.4, 250 mM NaCl, 6 days) and 17.4 ± 5.4% in assay [2].

Turning to `Cc1oc(C(=O)Nc2nnc(C(F)(F)F)[nH]2)cc1S(=O)(=O)N1CCCC1` [RU-0213804, CC1=C(C=C(O1)C(=O)NC1=NN=C(N1)C(F)(F)F)S(=O)(=O)N1CCCC1], the activity at 10 µM in assay [1] (setting [3]) was 31.2%; in assay [1] (setting [4]) it was 54.8 ± 1.2%; in assay [2], 39.8 ± 7.2%. For the same compound, the activity at 20 µM in assay [1] (pH 6.4, 250 mM NaCl, 6 days) amounted to 42.3 ± 1%; in assay [2] it was 21.3 ± 6%.
